In patent US20250003970A1, “FRET ENZYMATIC SUBSTRATE AND USES THEREOF IN LUNG CANCER” (URTESTE S.A., priority 2021, published 2025):
“And” between values parts separate entries of the source, which are not always exact repeats. Equal entries are not always repeated. Starred links: 1 amine or outer side, 2 acyl side, 3 side chain; linkers in the order of their positions; H or OH if unused. Non-standard residues stand in square brackets, D forms with d. No end group written: not given here. Benzoyl(5-NH,2-NO2) = O=C(c1cc(N[*:1])ccc1[N+](=O)[O-])[*:2]; 2Abz = Nc1ccccc1C(=O)O

What was measured:
Type in all cases: biochemical, human
[1] = test system: enzymatic activity specific to lung cancer in urine from a subject suffering from lung cancer; test: Absorbance measurement of substrate hydrolysis in urine from subjects with lung cancer; details: for absorbance (Results of absorbance analysis): 405 nm, 37° C., 60 minutes, pH 8.0, triplicate
Description: (§1) The activity of the novel compounds according to the invention was studied in a group of 20 subjects diagnosed with lung cancer using the representative compound according to the invention. […] The remaining compounds according to the invention are characterized by the analogous mechanism of action. For this purpose, the representative compound according to the invention, ABZ^1-Tyr^2-Ile^3-Phe^4-Arg^5-ANB^6-NH2, was dissolved in dimethyl sulfoxide (at a concentration of 0.5 mg/mL) and then 50 μL of the solution was mixed with 120 μL of a buffer (200 mM Tris-HCl, pH 8.0) and 80 μL of urine from a subject suffering from lung cancer. The measurement was performed on a 96-well plate designed for measuring absorbance and each sample was analysed in triplicate at the temperature of 37° C. The duration of the measurement was 60 minutes. During the measurement, the wavelength characteristic for the chromophore (ANB-NH2) being released was monitored at the wavelength 405 nm (range 380-430 nm).

[2] = test system: urine samples taken from healthy persons; test: Absorbance measurement of substrate hydrolysis in urine from healthy subjects; details: for absorbance (Results of absorbance analysis): healthy person, 405 nm, 37° C., 60 minutes, pH 8.0, triplicate
[3] = test system: urine samples from patients with diagnosed cancers; test: Selectivity of substrate cleavage in urine from patients with different cancers
Source text: Arabic numerals indicate the numbers of given cancer types. The samples tested for each type of cancer were derived from 20 different patients for each of the tested cancers. The results are mean values for given cancer types.
as §1
Furthermore, the dependence of the cleavage selectivity of the substrate, i.e. the compound according to the invention, on the cancer being examined, was studied. […]

ABZ-Tyr-Ile-Phe-Arg-ANB-NH2 ([2Abz]YIFR-{Benzoyl(5-NH,2-NO2)-NH2}) [chromogenic/fluorogenic FRET peptide substrate, ABZ = 2-aminobenzoic acid, ANB-NH2 = amide of 5-amino-2-nitrobenzoic acid]
cleavage of the substrate ([1]; all samples 1-50 from persons suffering from lung cancer): underwent cleavage
efficiency of cleavage of the substrate ([1]; samples 7 and 16 compared with samples 50 or 42 (FIG. 2)): less efficiently
absorbance (Results of absorbance analysis) ([1]; urine sample 7, lung cancer): 0.0015 and 0.0017 and 0.002
absorbance (Results of absorbance analysis) ([1]; urine sample 8, lung cancer): 0.0032 and 0.0031 and 0.0036
absorbance (Results of absorbance analysis) ([1]; urine sample 9, lung cancer): 0.026 and 0.0294 and 0.025
absorbance (Results of absorbance analysis) ([1]; urine sample 10, lung cancer): 0.0403 and 0.0738 and 0.056
absorbance (Results of absorbance analysis) ([1]; urine sample 11, lung cancer): 0.0195 and 0.019 and 0.0188
absorbance (Results of absorbance analysis) ([1]; urine sample 12, lung cancer): 0.0056 and 0.0068 and 0.0062
absorbance (Results of absorbance analysis) ([1]; urine sample 13, lung cancer): 0.063 and 0.0633 and 0.0632
absorbance (Results of absorbance analysis) ([1]; urine sample 14, lung cancer): 0.018 and 0.0176 and 0.0179
absorbance (Results of absorbance analysis) ([1]; urine sample 15, lung cancer): 0.015 and 0.0139 and 0.0146
absorbance (Results of absorbance analysis) ([1]; urine sample 16, lung cancer): 0.0015 and 0.0016 and 0.002
absorbance (Results of absorbance analysis) ([1]; urine sample 17, lung cancer): 0.0096 and 0.0095 and 0.0102
absorbance (Results of absorbance analysis) ([1]; urine sample 18, lung cancer): 0.0104 and 0.019 and 0.0156
absorbance (Results of absorbance analysis) ([1]; urine sample 20, lung cancer): 0.0443 and 0.0299 and 0.036
absorbance (Results of absorbance analysis) ([1]; urine sample 21, lung cancer): 0.0215 and 0.022 and 0.0256
absorbance (Results of absorbance analysis) ([1]; urine sample 22, lung cancer): 0.0301 and 0.0349 and 0.035
absorbance (Results of absorbance analysis) ([1]; urine sample 23, lung cancer): 0.0732 and 0.0483 and 0.065
absorbance (Results of absorbance analysis) ([1]; urine sample 25, lung cancer): 0.0703 and 0.0549 and 0.062
absorbance (Results of absorbance analysis) ([1]; urine sample 26, lung cancer): 0.149 and 0.1049 and 0.103
absorbance (Results of absorbance analysis) ([1]; urine sample 27, lung cancer): 0.1005 and 0.1078 and 0.106
absorbance (Results of absorbance analysis) ([1]; urine sample 28, lung cancer): 0.0613 and 0.0765 and 0.072
absorbance (Results of absorbance analysis) ([1]; urine sample 29, lung cancer): 0.0203 and 0.0218 and 0.025
absorbance (Results of absorbance analysis) ([1]; urine sample 30, lung cancer): 0.1595 and 0.1543 and 0.156
absorbance (Results of absorbance analysis) ([1]; urine sample 31, lung cancer): 0.0346 and 0.0306 and 0.036
absorbance (Results of absorbance analysis) ([1]; urine sample 32, lung cancer): 0.01457 and 0.0186 and 0.0159
absorbance (Results of absorbance analysis) ([1]; urine sample 33, lung cancer): 0.07 and 0.0625 and 0.0687
absorbance (Results of absorbance analysis) ([1]; urine sample 34, lung cancer): 0.0421 and 0.0243 and 0.036
absorbance (Results of absorbance analysis) ([1]; urine sample 35, lung cancer): 0.0402 and 0.0714 and 0.0632
absorbance (Results of absorbance analysis) ([1]; urine sample 36, lung cancer): 0.0046 and 0.0057 and 0.00498
absorbance (Results of absorbance analysis) ([1]; urine sample 37, lung cancer): 0.058 and 0.065 and 0.062
absorbance (Results of absorbance analysis) ([1]; urine sample 38, lung cancer): 0.0194 and 0.01741 and 0.0185
absorbance (Results of absorbance analysis) ([1]; urine sample 40, lung cancer): 0.0572 and 0.03085 and 0.0469
absorbance (Results of absorbance analysis) ([1]; urine sample 41, lung cancer): 0.0138 and 0.0163 and 0.0156
absorbance (Results of absorbance analysis) ([1]; urine sample 42, lung cancer): 0.1543 and 0.1976 and 0.175
absorbance (Results of absorbance analysis) ([1]; urine sample 43, lung cancer): 0.0366
absorbance (Results of absorbance analysis) ([2]; urine sample 1Z): 0.00000
absorbance (Results of absorbance analysis) ([2]; urine sample 2Z): 0.00000
absorbance (Results of absorbance analysis) ([2]; urine sample 3Z): 0.00000
absorbance (Results of absorbance analysis) ([2]; urine sample 4Z): 0.00000
absorbance (Results of absorbance analysis) ([2]; urine sample 5Z): 0.00000
absorbance (Results of absorbance analysis) ([2]; urine sample 6Z): 0.00000
absorbance (Results of absorbance analysis) ([2]; urine sample 7Z): 0.00000
absorbance (Results of absorbance analysis) ([2]; urine sample 8Z): 0.00000
absorbance (Results of absorbance analysis) ([2]; urine sample 9Z): 0.00000
absorbance (Results of absorbance analysis) ([2]; urine sample 10Z): 0.00000
absorbance (Results of absorbance analysis) ([2]; urine sample 11Z): 0.00000
absorbance (Results of absorbance analysis) ([2]; urine sample 12Z): 0.00000
absorbance (Results of absorbance analysis) ([2]; urine sample 13Z): 0.00000
absorbance (Results of absorbance analysis) ([2]; urine sample 14Z): 0.00000
absorbance (Results of absorbance analysis) ([2]; urine sample 15Z): 0.00000
absorbance (Results of absorbance analysis) ([2]; urine sample 16Z): 0.00000
absorbance (Results of absorbance analysis) ([2]; urine sample 17Z): 0.00000
absorbance (Results of absorbance analysis) ([2]; urine sample 18Z): 0.00000
absorbance (Results of absorbance analysis) ([2]; urine sample 19Z): 0.00000
absorbance (Results of absorbance analysis) ([2]; urine sample 20Z): 0.00000
absorbance (Results of absorbance analysis) ([2]; urine sample 21Z): 0.00000
absorbance (Results of absorbance analysis) ([2]; urine sample 22Z): 0.00000
absorbance (Results of absorbance analysis) ([2]; urine sample 23Z): 0.00000
absorbance (Results of absorbance analysis) ([2]; urine sample 24Z): 0.00000
absorbance (Results of absorbance analysis) ([2]; urine sample 25Z): 0.00000
increase in absorbance / hydrolysis ([2]; urine samples from healthy persons 1Z to 25Z): does not lead to an increase in absorbance
selectivity of hydrolysis of the substrate ([3]; lung cancer urine (sample 1) vs other neoplastic disease (samples 2-9), FIG. 3, mean values): selectivity of substrate cleavage in the case of urine from patients with lung cancer
cleavage / increase in absorbance ([3]; samples from patients with testicular, intestine, kidney, prostate, pancreatic, bile duct, lung, ovarian, and rectum cancer): is not subject to cleavage
